Test results as given in US9359406B2, “Vaccine for a therapeutic or a prophylactic treatment of myasthenia gravis” (CuraVac Inc., priority 2006, dated 2016).
No end group written: not given here.

Legend:
[1] = system: experimental autoimmune myasthenia gravis (EAMG); experiment: Example 3: EAMG induced with purified Torpedo AChR in Lewis rats vaccinated with T-peptide, B-peptide or both; format: in vivo; conditions: immunized three times
Excerpt: To evaluate whether vaccination with T-peptide together with B-peptide with an hydrocarbon group causes a different effect on experimental autoimmune myasthenia gravis (EAMG) than either B with an hydrocarbon group and T-peptide alone and separately, Lewis rats were immunized three times with keyhole limpet hemacyanin (KLH) or T-peptide or B-peptide with an hydrocarbon group coupled to KLH either alone or in combination. EAMG was then induced with purified Torpedo AChR and disease was monitored.

pathogenic antibodies = experiment: Pathogenic antibodies level in rats given B-peptide and T-peptide alone or together; format: in vivo; conditions: result in words
Procedure: As previously described, the peptide RhCA 67-16 also called herein B-peptide and the peptide RhCA 611-001 also referred herein T-peptide were tested alone on rats.

[2] = system: Experimental Autoimmune Myasthenia Gravis (EAMG); conditions: cited from earlier work

NH2-Phe-Asn-Ser-Thr-Ile-Ile-Gly-Trp-Ile-Pro-Ala-Lys-Pro-His-Ile-Asn (H-FNSTIIGWIPAKPHIN; also: Trp8 carries at least one 2,4,6-trimethoxybenzyl group) [RhCA 67-16]
Average Severity [1]: 1.33 ± 0.55
EAMG Incidence (%) [1]: 55.56%
Mortality (%) [1]: 22.22%
Severity 0, number of rats [1]: 4
Severity 1, number of rats [1]: 2
Severity 2, number of rats [1]: 1
Severity 4, number of rats [1]: 2
pathogenic antibodies level (pathogenic antibodies): significant decrease
incidence of the disease in vaccinated animals ([2]; peptide conjugated to KLH, controls 90%): 25%
clinical severity scoring in animals with disease, average ([2]; peptide conjugated to KLH, positive controls 3.5): 1.0

NH2-Tyr-Phe-Ser-Arg-Ile-Ile-Gln-Lys-Gln-Phe-Gly-His-Val-Asn-Asn-Gly-Lys (H-YFSRIIQKQFGHVNNGK) [RhCA 611-001, peptide complementary to residues 100-116 of the α-chain of the AChR]
Average Severity [1]: 1.22 ± 0.55
EAMG Incidence (%) [1]: 55.56%
Mortality (%) [1]: 22.22%
Severity 0, number of rats [1]: 4
Severity 1, number of rats [1]: 3
Severity 4, number of rats [1]: 2
pathogenic antibodies level (pathogenic antibodies): significant decrease
clinical outcome after immunization ([2]; Lewis rats, result in words): marked clinical improvement, lowered mortality and preservation of AChR levels on muscles
